Measured values as given in ChEMBL document CHEMBL5500393, “Discovery and Optimization of Novel SaFabI Inhibitors as Specific Therapeutic Agents for MRSA Infection” (J Med Chem, 2024).
pIC50: −log10 of the molar value. Values after ≈ are worked out from the molar mass of the structure shown.

Experiments:
[1] = molecular target: T1, Enoyl-[acyl-carrier-protein] reductase [NADPH] FabI (Staphylococcus aureus) (UniProt Q6GI75); test: Inhibition of N-terminal his 6 tagged Staphylococcus aureus Fabi (1 to […] residues) expressed in Escherichia coli BL21 at 1 uM incubated for 30 mins in presence of NADPH by fluorescence based microplate reader analysis relative to control
T1 sequence (whole entry): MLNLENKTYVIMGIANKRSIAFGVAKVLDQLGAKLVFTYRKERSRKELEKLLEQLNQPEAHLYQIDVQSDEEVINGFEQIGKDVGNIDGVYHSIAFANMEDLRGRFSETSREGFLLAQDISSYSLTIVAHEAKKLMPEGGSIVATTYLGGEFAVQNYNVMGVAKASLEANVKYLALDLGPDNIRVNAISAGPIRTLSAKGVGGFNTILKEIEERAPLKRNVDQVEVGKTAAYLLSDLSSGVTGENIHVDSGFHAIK

[2] = system: Staphylococcus aureus; test: Antimicrobial activity against methicillin-susceptible Staphylococcus aureus ATCC29213 measured after 24 hrs by CLSI protocol based microdilution method; assay type: functional
[3] = system: Enterococcus faecalis; test: Antimicrobial activity against Enterococcus faecalis ATCC29212 measured after 24 hrs by CLSI protocol based microdilution method; assay type: functional
[4] = Inhibition of N-terminal his 6 tagged Escherichia coli Fabi (1 to 789 residues) expressed in Escherichia coli BL21 incubated for 30 mins in presence of NADH by fluorescence based microplate reader analysis
[5] = system: HepG2; test: Cytotoxicity against human HepG2 cells assessed as survival rate at 400 uM measured after 48 hrs by CCK-8 method relative to control; assay type: functional; conditions: read-out: Survival
[6] = Cytotoxicity against HEK293 cells assessed as survival rate at 400 uM measured after 48 hrs by CCK-8 method relative to control; assay type: toxicity, cell-based; conditions: human, read-out: Survival
[7] = system: Staphylococcus aureus; test: Antimicrobial activity against […] Staphylococcus aureus USA300 measured after 24 hrs by CLSI protocol based microdilution method; assay type: functional
[8] = Hemolytic activity in sheep erythrocytes assessed as hemolysis incubated for 1 hr by microplate reader based analysis; assay type: toxicity, cell-based, Ovis aries, Erythrocyte
[9] = system: Enterococcus faecium; test: Antimicrobial activity against Enterococcus faecium ATCC19434 measured after 24 hrs by CLSI protocol based microdilution method; assay type: functional
[10] = Cytotoxicity against HEK293 cells assessed as survival rate at 800 uM measured after 48 hrs by CCK-8 method relative to control; assay type: toxicity, cell-based; conditions: human, read-out: Survival
[11] = system: HepG2; test: Cytotoxicity against human HepG2 cells assessed as survival rate at 800 uM measured after 48 hrs by CCK-8 method relative to control; assay type: functional; conditions: read-out: Survival
[12] = Hemolytic activity in sheep erythrocytes assessed as hemolysis at 128 ug/ml incubated for 1 hr by microplate reader based analysis relative to control; assay type: toxicity, cell-based, Ovis aries, Erythrocyte; conditions: at 128 µg/mL, read-out: Activity
[13] = molecular target: T2, Enoyl-[acyl-carrier-protein] reductase [NADPH] FabI (Staphylococcus aureus, UniProt Q6GI75); test: Inhibition of N-terminal his 6 tagged Staphylococcus aureus Fabi (1 to […] residues) expressed in Escherichia coli BL21 incubated for 30 mins in presence of NADPH by fluorescence based microplate reader analysis
T2 sequence (Q6GI75 whole entry): T1 sequence (whole entry)

[14] = Hemolytic activity in sheep erythrocytes assessed as hemolysis at 64 ug/ml incubated for 1 hr by microplate reader based analysis relative to control; assay type: toxicity, cell-based, Ovis aries, Erythrocyte; conditions: at 64 µg/mL, read-out: Activity
[15] = system: Staphylococcus aureus; test: Antimicrobial activity against Staphylococcus aureus measured after 24 hrs by CLSI protocol based microdilution method; assay type: functional
[16] = system: Acinetobacter baumannii; test: Antimicrobial activity against Acinetobacter baumannii ATCC19606 measured after 24 hrs by CLSI protocol based microdilution method; assay type: functional
[17] = system: Escherichia coli; test: Antimicrobial activity against Escherichia coli ATCC25922 measured after 24 hrs by CLSI protocol based microdilution method; assay type: functional
[18] = Inhibition of N-terminal his 6 tagged Acinetobacter baumannii Fabi (1 to 804 residues) expressed in Escherichia coli BL21 incubated for 30 mins in presence of NADH by fluorescence based microplate reader analysis
[19] = Selectivity index, ratio of HC50 for sheep erythrocytes to MIC for Staphylococcus aureus; assay type: toxicity; conditions: read-out: Selectivity Index
[20] = system: Staphylococcus aureus; test: Antimicrobial activity against […] Staphylococcus aureus ATCC43300 measured after 24 hrs by CLSI protocol based microdilution method; assay type: functional
[21] = system: Candida albicans; test: Antimicrobial activity against Candida albicans SC5314 measured after 48 hrs by CLSI protocol based microdilution method; assay type: functional
[22] = system: Staphylococcus aureus; test: Antimicrobial activity against […] Staphylococcus aureus ATCC33591 measured after 24 hrs by CLSI protocol based microdilution method; assay type: functional
[23] = system: Staphylococcus aureus; test: Antimicrobial activity against methicillin-susceptible Staphylococcus aureus ATCC25923 measured after 24 hrs by CLSI protocol based microdilution method; assay type: functional
[24] = molecular target: T1, Enoyl-[acyl-carrier-protein] reductase [NADPH] FabI (Staphylococcus aureus); test: Inhibition of N-terminal his 6 tagged Staphylococcus aureus Fabi (1 to […] residues) expressed in Escherichia coli BL21 at 10 uM incubated for 30 mins in presence of NADPH by fluorescence based microplate reader analysis relative to control
[25] = system: Pseudomonas aeruginosa; test: Antimicrobial activity against Pseudomonas aeruginosa PAO1 measured after 24 hrs by CLSI protocol based microdilution method; assay type: functional
[26] = system: Staphylococcus aureus; test: Antimicrobial activity against […] Staphylococcus aureus NRS271 measured after 24 hrs by CLSI protocol based microdilution method; assay type: functional
[27] = Hemolytic activity in sheep erythrocytes assessed as hemolysis at 256 ug/ml incubated for 1 hr by microplate reader based analysis relative to control; assay type: toxicity, cell-based, Ovis aries, Erythrocyte; conditions: at 256 µg/mL, read-out: Activity

Row | SMILES | inhibition [1] [%] | MIC [2] [µg/mL] | MIC [3] [µg/mL] | pIC50 [4] | MIC [7] [µg/mL] | MIC [9] [µg/mL] | pIC50 [13] | MIC [16] [µg/mL] | MIC [17] [µg/mL] | pIC50 [18] | MIC [20] [µg/mL] | MIC [21] [µg/mL] | MIC [22] [µg/mL] | MIC [23] [µg/mL] | inhibition [24] [%] | MIC [25] [µg/mL] | MIC [26] [µg/mL] | also measured
1 | Cc1c(Cl)cccc1N1CC(c2nc3ccccc3n2C)CC1=O (stereo unspecified) | 76.8 | 2 (≈ 5.89 µM) | > 32 | 7.44 | 4 (≈ 11.8 µM) | > 32 | 6.37 | > 32 | > 32 | 6.57 | 2 (≈ 5.89 µM) | > 32 | 2 (≈ 5.89 µM) | 2 (≈ 5.89 µM) | 99.1 | > 32 | 4 (≈ 11.8 µM) | viability at 400 µM [5]: > 70%; viability at 48 h, 400 µM [6]: > 70%; HC50 at 1 h [8]: > 256 µg/mL; viability at 48 h, 800 µM [10]: > 65%; viability at 800 µM [11]: > 65%; hemolysis at 1 h, 128 ug/ml [12]: 6.9%; hemolysis at 1 h, 64 ug/ml [14]: 3.8%; MIC [15]: 2 µg/mL (≈ 5.89 µM); selectivity ratio [19]: > 64; hemolysis at 1 h, 256 ug/ml [27]: 13.2%
2 | Cn1c(C2CC(=O)N(c3cccc(Br)c3Cl)C2)nc2ccccc21 (stereo unspecified) | 80.3 | 2 (≈ 4.94 µM) | > 32 | 7.44 | 1 (≈ 2.47 µM) | > 32 | 6.48 | > 32 | > 32 | 6.57 | 2 (≈ 4.94 µM) | > 32 | 2 (≈ 4.94 µM) | 1 (≈ 2.47 µM) | 97.4 | > 32 | 4 (≈ 9.88 µM) | viability at 400 µM [5]: > 70%; viability at 48 h, 400 µM [6]: > 70%; HC50 at 1 h [8]: > 256 µg/mL; viability at 48 h, 800 µM [10]: > 75%; viability at 800 µM [11]: > 75%; hemolysis at 1 h, 128 ug/ml [12]: 4.7%; hemolysis at 1 h, 64 ug/ml [14]: 2.8%; MIC [15]: 1 µg/mL (≈ 2.47 µM); selectivity ratio [19]: > 64; hemolysis at 1 h, 256 ug/ml [27]: 10.6%
3 | Cc1c(Br)cccc1N1CC(c2nc3cc(F)c(F)cc3n2C)CC1=O (stereo unspecified) | 3.2 | 32 (≈ 76.1 µM) | > 32 | – | > 32 | > 32 | 5.28 | > 32 | > 32 | – | > 32 | > 32 | > 32 | > 32 | 66.7 | > 32 | > 32 | –
4 | COc1cccc(N2CC(c3nc4ccccc4n3C)CC2=O)c1C (stereo unspecified) | 27.9 | 16 (≈ 47.7 µM) | > 32 | – | 16 (≈ 47.7 µM) | > 32 | 5.64 | > 32 | > 32 | – | 32 (≈ 95.4 µM) | > 32 | > 32 | 32 (≈ 95.4 µM) | 88.2 | > 32 | 16 (≈ 47.7 µM) | –
5 | Cc1cccc(N2CC(c3nc4ccccc4n3C)CC2=O)c1Br (stereo unspecified) | 30.1 | 16 (≈ 41.6 µM) | > 32 | – | 16 (≈ 41.6 µM) | > 32 | 5.77 | > 32 | > 32 | – | 32 (≈ 83.3 µM) | > 32 | 16 (≈ 41.6 µM) | 8 (≈ 20.8 µM) | 92.6 | > 32 | 32 (≈ 83.3 µM) | –
6 | Cc1cccc(N2CC(c3nc4ccccc4n3C)CC2=O)c1 (stereo unspecified) | 4.9 | > 32 | > 32 | – | > 32 | > 32 | 5.24 | > 32 | > 32 | – | > 32 | > 32 | > 32 | > 32 | 67.7 | > 32 | > 32 | –
7 | Cc1c(N2CC(c3nc4ccccc4n3C)CC2=O)cccc1C(F)(F)F (stereo unspecified) | 66.1 | 4 (≈ 10.7 µM) | > 32 | – | 8 (≈ 21.4 µM) | > 32 | 6.20 | > 32 | > 32 | – | 4 (≈ 10.7 µM) | > 32 | 4 (≈ 10.7 µM) | 8 (≈ 21.4 µM) | 93.9 | > 32 | 8 (≈ 21.4 µM) | –
8 | Cn1c(C2CC(=O)N(c3cccc(Br)c3F)C2)nc2ccccc21 (stereo unspecified) | 71.2 | 2 (≈ 5.15 µM) | > 32 | 7.44 | 4 (≈ 10.3 µM) | > 32 | 6.32 | > 32 | > 32 | 6.57 | 4 (≈ 10.3 µM) | > 32 | 4 (≈ 10.3 µM) | 2 (≈ 5.15 µM) | 95.3 | > 32 | 8 (≈ 20.6 µM) | –
